Among the data in ChEMBL document CHEMBL3864127, “Janadolide, a Cyclic Polyketide-Peptide Hybrid Possessing a tert-Butyl Group from an Okeania sp. Marine Cyanobacterium” (J Nat Prod, 2016) are IC50 and Activity values, retold here.

pIC50: −log10 of the molar value.

Data set [1] has as its system Trypanosoma brucei brucei. Nature of the data set: Antitrypanosomal activity against bloodstream form of Trypanosoma brucei brucei GUTat 3.1 after 72 hrs by Alamar blue assay. It counts as functional. The following applies: GUTat 3.1, 72 h.
A short description of data set [2]: Cytotoxicity against human MRC5 cells assessed as cell growth inhibition at 10 uM after 7 days by MTT assay. It counts as toxicity, cell-based. The conditions noted are these: mrc5, 168 h. (Tetrazolium assays rely on reduction of a dye to a coloured formazan, in cell work by metabolically active cells.)
Data set [3] in a line: Cytotoxicity against human HeLa cells assessed as cell growth inhibition at 10 uM after 72 hrs by MTT assay. It counts as toxicity, cell-based.
Data set [4] in a line: Cytotoxicity against human HL60 cells assessed as cell growth inhibition at 10 uM after 72 hrs by MTT assay. The conditions noted are these: hl-60, 72 h. It counts as toxicity, cell-based.

One may read the pIC50 as the negative decadic logarithm of the IC50, by convention in mol/L. A lower pIC50 goes with a high IC50. In the case of `Cc1ccc(C(=O)Nc2ccc(S(=O)(=O)O)c3cc(S(=O)(=O)O)cc(S(=O)(=O)O)c23)cc1NC(=O)c1cccc(NC(=O)Nc2cccc(C(=O)Nc3cc(C(=O)Nc4ccc(S(=O)(=O)O)c5cc(S(=O)(=O)O)cc(S(=O)(=O)O)c45)ccc3C)c2)c1` [SURAMIN], in data set [1], the pIC50 is 5.92.
`C/C1=C\[C@@H](C(C)(C)C)OC(=O)[C@H](CC(C)C)N(C)C(=O)[C@H](C)N(C)C(=O)CNC(=O)[C@H](C(C)C)NC(=O)[C@@H]2CCCN2C(=O)[C@H](C)CC1` showed a pIC50 in data set [1] of 7.33. The Activity entry in data set [2], in data set [3] and in data set [4] was “Non-Toxic” throughout.
